According to US20230114728A1 (Venatorx Pharmaceuticals, Inc., priority 2019, published 2023):
In brackets after ≈: the same amount, converted by molar mass.

Experiments:
Experiment in all cases: Broth microdilution MIC in CAMHB
Type in all cases: cell-based
[1] = test system: A. baumannii ATCC 19606; conditions: Acinetobacter baumannii, ATCC19606; MHB; read-out: Minimum Inhibitory Concentration, A. baumannii ATCC 19606
In short: (§1)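 Hyper-permeable or efflux-deficient strains serve to probe outer-membrane penetration. Growth inhibition is scored visually after 16-20 h at 37° C in CAMHB, starting from 2-8×10^5 CFU/mL.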

[2] = test system: E. coli 901C; conditions: Escherichia coli; E. coli 901C (hyper-permeable); MHB; read-out: Minimum Inhibitory Concentration, E. coli 901C
In short: as §1

[3] = test system: E. coli AG100A; conditions: Escherichia coli, read-out: Minimum Inhibitory Concentration, E. coli AG100A
In short: as §1

[4] = test system: E. coli AG100; conditions: Escherichia coli; E. coli AG100 (wild-type parent); MHB; read-out: Minimum Inhibitory Concentration, E. coli AG100
In short: as §1

[5] = test system: E. coli ATCC 25922; conditions: Escherichia coli, ATCC25922; E. coli ATCC 25922; MHB; read-out: Minimum Inhibitory Concentration, E. coli 25922
In short: as §1

[6] = test system: E. coli D22; conditions: Escherichia coli; E. coli D22 (hyper-permeable); MHB; read-out: Minimum Inhibitory Concentration, E. coli D22
In short: as §1

[7] = test system: K. pneumoniae 848844 producing SHV-11 and KPC-2; conditions: Klebsiella pneumoniae, read-out: Minimum Inhibitory Concentration, K. pneumoniae 848844
In short: as §1

[8] = test system: K. pneumoniae SI-117 producing VIM-1; conditions: Klebsiella pneumoniae, read-out: Minimum Inhibitory Concentration, K. pneumoniae SI-117
In short: as §1

[9] = test system: K. pneumoniae UMM producing SHV-5 and KPC-2; conditions: Klebsiella pneumoniae, read-out: Minimum Inhibitory Concentration, K. pneumoniae UMM
In short: as §1

[10] = test system: P. aeruginosa (ΔmexAB-oprM); conditions: Pseudomonas aeruginosa, read-out: Minimum Inhibitory Concentration, P. aeruginosa ΔmexAB-OprM
In short: as §1

[11] = test system: P. aeruginosa ATCC 27853; conditions: Pseudomonas aeruginosa, ATCC27853; MHB; read-out: Minimum Inhibitory Concentration, P. aeruginosa ATCC 27853
In short: as §1

[12] = test system: P. aeruginosa ATCC 35151; conditions: Pseudomonas aeruginosa, ATCC35151; MHB; hyper-permeable strain; read-out: Minimum Inhibitory Concentration, P. aeruginosa ATCC 35151
In short: as §1

Structure (SMILES) | MIC [1] [µg/mL] | MIC [2] [µg/mL] | MIC [3] [µg/mL] | MIC [4] [µg/mL] | MIC [5] [µg/mL] | MIC [6] [µg/mL] | MIC [7] [µg/mL] | MIC [8] [µg/mL] | MIC [9] [µg/mL] | MIC [10] [µg/mL] | MIC [11] [µg/mL] | MIC [12] [µg/mL]
O=C(O)c1cccc2c1OB(O)[C@@H](NC(=O)C(NC(=O)N1CCN(CCF)C(=O)C1=O)c1c(F)cc(O)cc1F)C2 (mixture of isomers) [Example 119, (3R)-3-(2-(2,6-difluoro-4-hydroxyphenyl)-2-(4-(2-fluoroethyl)-2,3-dioxopiperazine-1-carboxamido)acetamido)-2-hydroxy-3,4-dihydro-2H-benzo[e][1,2]oxaborinine-8-carboxylic acid] | > 128 | < 0.25 | 0.5 to 1 (≈ 0.865 to 1.73 µM) | 8 to 16 (≈ 13.8 to 27.7 µM) | 8 to 16 (≈ 13.8 to 27.7 µM) | 0.5 to 1 (≈ 0.865 to 1.73 µM) | 32 to 64 (≈ 55.3 to 111 µM) | 32 to 64 (≈ 55.3 to 111 µM) | 8 to 16 (≈ 13.8 to 27.7 µM) | 8 to 16 (≈ 13.8 to 27.7 µM) | > 128 | 2 to 4 (≈ 3.46 to 6.92 µM)
NCCN1CCN(C(=O)N[C@H](C(=O)N[C@H]2Cc3cccc(C(=O)O)c3OB2O)c2c(F)cc(O)cc2F)C(=O)C1=O (single isomer, unassigned) [Example 110] | > 128 | 8 to 16 (≈ 13.9 to 27.8 µM) | 8 to 16 (≈ 13.9 to 27.8 µM) | > 128 | > 128 | 32 to 64 (≈ 55.6 to 111 µM) | > 128 | > 128 | > 128 | 32 to 64 (≈ 55.6 to 111 µM) | > 128 | 8 to 16 (≈ 13.9 to 27.8 µM)
NCCN1CCN(C(=O)N[C@@H](C(=O)N[C@H]2Cc3cccc(C(=O)O)c3OB2O)c2c(F)cc(O)cc2F)C(=O)C1=O (single isomer, unassigned) [Example 111] | > 128 | 0.5 to 1 (≈ 0.869 to 1.74 µM) | 0.5 to 1 (≈ 0.869 to 1.74 µM) | 8 to 16 (≈ 13.9 to 27.8 µM) | 8 to 16 (≈ 13.9 to 27.8 µM) | 2 to 4 (≈ 3.48 to 6.95 µM) | 8 to 16 (≈ 13.9 to 27.8 µM) | 8 to 16 (≈ 13.9 to 27.8 µM) | 8 to 16 (≈ 13.9 to 27.8 µM) | 8 to 16 (≈ 13.9 to 27.8 µM) | > 128 | 0.5 to 1 (≈ 0.869 to 1.74 µM)
NCCN1CCN(C(=O)N[C@@H](C(=O)N[C@H]2Cc3cccc(C(=O)O)c3OB2O)c2cccc(NS(N)(=O)=O)c2)C(=O)C1=O (single isomer, unassigned) [Example 114] | > 128 | 2 to 4 (≈ 3.24 to 6.48 µM) | 2 to 4 (≈ 3.24 to 6.48 µM) | 32 to 64 (≈ 51.8 to 104 µM) | 32 to 64 (≈ 51.8 to 104 µM) | 8 to 16 (≈ 13 to 25.9 µM) | 32 to 64 (≈ 51.8 to 104 µM) | 32 to 64 (≈ 51.8 to 104 µM) | 32 to 64 (≈ 51.8 to 104 µM) | 2 to 4 (≈ 3.24 to 6.48 µM) | > 128 | 0.5 to 1 (≈ 0.81 to 1.62 µM)
NCCN1CCN(C(=O)N[C@H](C(=O)N[C@H]2Cc3cccc(C(=O)O)c3OB2O)c2cccc(NS(N)(=O)=O)c2)C(=O)C1=O (single isomer, unassigned) [Example 115] | > 128 | 2 to 4 (≈ 3.24 to 6.48 µM) | 8 to 16 (≈ 13 to 25.9 µM) | > 128 | > 128 | 8 to 16 (≈ 13 to 25.9 µM) | > 128 | > 128 | > 128 | 8 to 16 (≈ 13 to 25.9 µM) | > 128 | 2 to 4 (≈ 3.24 to 6.48 µM)
NC1(CN2CCN(C(=O)N[C@@H](C(=O)N[C@H]3Cc4cccc(C(=O)O)c4OB3O)c3c(F)cc(O)cc3F)C(=O)C2=O)CC1 (single isomer, unassigned) [Example 121] | > 128 | 0.5 to 1 (≈ 0.831 to 1.66 µM) | 2 to 4 (≈ 3.33 to 6.65 µM) | 8 to 16 (≈ 13.3 to 26.6 µM) | 8 to 16 (≈ 13.3 to 26.6 µM) | 2 to 4 (≈ 3.33 to 6.65 µM) | 32 to 64 (≈ 53.2 to 106 µM) | 32 to 64 (≈ 53.2 to 106 µM) | 8 to 16 (≈ 13.3 to 26.6 µM) | 8 to 16 (≈ 13.3 to 26.6 µM) | > 128 | 0.5 to 1 (≈ 0.831 to 1.66 µM)
NC1(CN2CCN(C(=O)N[C@H](C(=O)N[C@H]3Cc4cccc(C(=O)O)c4OB3O)c3c(F)cc(O)cc3F)C(=O)C2=O)CC1 (single isomer, unassigned) [Example 122] | > 128 | 2 to 4 (≈ 3.33 to 6.65 µM) | 8 to 16 (≈ 13.3 to 26.6 µM) | 32 to 64 (≈ 53.2 to 106 µM) | 32 to 64 (≈ 53.2 to 106 µM) | 8 to 16 (≈ 13.3 to 26.6 µM) | > 128 | 32 to 64 (≈ 53.2 to 106 µM) | 32 to 64 (≈ 53.2 to 106 µM) | 32 to 64 (≈ 53.2 to 106 µM) | > 128 | 2 to 4 (≈ 3.33 to 6.65 µM)
CCN1CCN(C(=O)N[C@H](C(=O)N[C@H]2Cc3cccc(C(=O)O)c3OB2O)c2ccc(C(=O)O)cc2)C(=O)C1=O (single isomer, unassigned) [Example 123] | > 128 | < 0.25 | 8 to 16 (≈ 14.5 to 29 µM) | 32 to 64 (≈ 57.9 to 116 µM) | > 128 | 2 to 4 (≈ 3.62 to 7.24 µM) | > 128 | > 128 | > 128 | 8 to 16 (≈ 14.5 to 29 µM) | > 128 | 0.5 to 1 (≈ 0.905 to 1.81 µM)
